These results are taken from the Kinase Knowledgebase extract (Sharma et al. 2016).

Several values for one entry are separate records, joined by “and”; a condition that tells them apart may be missing. Equal entries are not always repeated.

One test deals with PIK3CA (human) (UniProt P42336). Put plainly: Inhibition of PIK3CA Kinase Activity.
Test [1] has as its target PIK3CA (human), P42336 [Antiproliferation of PI3K Mutated BT20 Cells]. The test is described as follows: Cell-Based Assay.

Sequence of PIK3CA (human) (P42336 whole entry, looked up): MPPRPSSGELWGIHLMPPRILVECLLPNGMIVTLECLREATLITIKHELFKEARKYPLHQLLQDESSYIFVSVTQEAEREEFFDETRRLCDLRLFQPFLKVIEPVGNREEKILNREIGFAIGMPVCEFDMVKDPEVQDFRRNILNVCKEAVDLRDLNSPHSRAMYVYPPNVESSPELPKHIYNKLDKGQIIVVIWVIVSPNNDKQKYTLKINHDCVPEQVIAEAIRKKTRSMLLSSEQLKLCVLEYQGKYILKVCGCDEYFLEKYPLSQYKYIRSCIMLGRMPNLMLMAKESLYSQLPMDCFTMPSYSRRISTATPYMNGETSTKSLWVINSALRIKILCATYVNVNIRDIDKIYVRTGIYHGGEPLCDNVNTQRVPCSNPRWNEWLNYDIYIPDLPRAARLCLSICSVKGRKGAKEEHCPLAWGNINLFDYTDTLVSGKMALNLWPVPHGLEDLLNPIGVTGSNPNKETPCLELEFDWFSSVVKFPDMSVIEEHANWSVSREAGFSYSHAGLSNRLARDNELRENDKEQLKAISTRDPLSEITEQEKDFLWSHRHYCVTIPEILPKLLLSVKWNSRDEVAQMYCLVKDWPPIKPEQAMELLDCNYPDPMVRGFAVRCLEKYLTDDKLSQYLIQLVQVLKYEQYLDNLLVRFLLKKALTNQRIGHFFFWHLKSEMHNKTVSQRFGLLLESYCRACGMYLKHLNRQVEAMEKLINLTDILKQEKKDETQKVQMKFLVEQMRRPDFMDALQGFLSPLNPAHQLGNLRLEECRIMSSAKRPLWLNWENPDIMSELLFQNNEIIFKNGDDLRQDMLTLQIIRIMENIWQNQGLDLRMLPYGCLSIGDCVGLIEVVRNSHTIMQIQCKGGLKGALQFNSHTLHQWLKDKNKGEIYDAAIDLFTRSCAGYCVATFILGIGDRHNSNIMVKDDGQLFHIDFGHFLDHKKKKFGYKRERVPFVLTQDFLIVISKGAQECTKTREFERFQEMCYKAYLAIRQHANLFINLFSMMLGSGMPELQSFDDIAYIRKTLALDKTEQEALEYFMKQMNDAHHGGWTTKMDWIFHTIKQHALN
Sequence of PIK3CA (human), P42336 [Antiproliferation of PI3K Mutated BT20 Cells] (P42336 whole entry, looked up, change not shown): as the sequence (P42336 whole entry, looked up) above

As for `CNc1nc(C)c2cc(-c3cccc(CO)c3)c(=O)n(C3CCCC3)c2n1`, the half-inhibitory concentration (IC50) at PIK3CA (human) is 4.78 nM; in test [1], 14.7 nM.

Take `COc1ccc(-c2cc3c(C)nc(N)nc3n([C@H]3C[C@H](OCC(N)=O)C3)c2=O)cn1`: the values for the IC50 (at PIK3CA (human); in test [1]) were 4.72 nM and 33.5 nM, respectively.

With `Cc1nc(N)nc2c1cc(-c1cn[nH]c1)c(=O)n2C1CCOCC1`, the IC50 at PIK3CA (human) stood at 18.5 nM; in test [1], 19.9 nM.

Consider `Cc1nc(N)nc2c1cc(-c1cnc3[nH]ccc3c1)c(=O)n2CC1CCOC1` (stereo not drawn), for which the values for the IC50 (against PIK3CA (human); in test [1]) were 2.8 nM and 57.8 nM, respectively.

For the compound `Cc1nc(N)nc2c1cc(-c1cn[nH]c1)c(=O)n2C1CCC(C)(O)CC1` (stereo not drawn), the IC50 at PIK3CA (human) turned out to be 18 nM; in test [1], 15.2 nM.

Regarding `COc1ccc(-c2cc3c(C)nc(N)nc3n(C3CCNC3)c2=O)cn1` (stereo not drawn), the values for the concentration for half-maximal inhibition (IC50) (at PIK3CA (human); in test [1]) were 200 nM and 671 nM, respectively.

As for `CNc1nc(C)c2cc(-c3cccc(O)c3)c(=O)n(C3CCCC3)c2n1`, the concentration for half-maximal inhibition (IC50) at PIK3CA (human) came to 0.731 nM; in test [1], 1.76 nM.

As for `CNc1nc(C)c2cc(C#N)c(=O)n(C3CCCC3)c2n1`, the IC50 against PIK3CA (human) amounted to 60 nM; in test [1] it was 603 nM.

For `CNc1nc(C)c2cc(-c3cccnc3OC)c(=O)n(C3CCCC3)c2n1`, the IC50 worked out at 275 nM on PIK3CA (human) and 3530 nM in test [1].

Turning to `Cc1nc(N)nc2c1cc(-c1cn[nH]c1)c(=O)n2[C@H]1CC[C@@H](OCCO)CC1`, the IC50 against PIK3CA (human) is 29.7 nM; in test [1], 9.1 nM.

For the compound `Cc1nc(N)nc2c1cc(-c1cnc(O)nc1)c(=O)n2C1CCOCC1`, the IC50 against PIK3CA (human) was 810 nM; in test [1], 10000 nM.

Take `CNc1nc(C)c2cc(-c3ccc(OC)nc3)c(=O)n(C(C)C)c2n1`: the IC50 at PIK3CA (human) was 110 nM and 21 nM; in test [1], 95.2 nM.

As to `Cc1nc(N)nc2c1cc(-c1cn[nH]c1)c(=O)n2C1CCC(=O)CC1`, the values for the concentration for half-maximal inhibition (IC50) (against PIK3CA (human); in test [1]) were 12 nM and 4.66 nM, respectively.

For `COc1ccc(-c2cc3c(C)nc(N)nc3n(C3CCCC3)c2=O)cc1F`, the IC50 is 15 nM against PIK3CA (human) and 45.9 nM in test [1].

Turning to `Cc1nc(N)nc2c1cc(-c1ccc(C#N)nc1)c(=O)n2[C@H]1CC[C@H](O)CC1`, the IC50 against PIK3CA (human) stood at 470 nM; in test [1] it was 2690 nM.

Take `CNc1nc(C)c2cc(-c3cn[nH]c3)c(=O)n(C3CCCC3)c2n1`: the concentration for half-maximal inhibition (IC50) is 8 nM against PIK3CA (human) and 2.58 nM in test [1].

For the compound `COc1cc(-c2cc3c(C)nc(N)nc3n(C3CCCC3)c2=O)ccc1O`, the IC50 at PIK3CA (human) stood at 0.989 nM; in test [1], 19 nM.

As to `COc1ncc(-c2cc3c(C)nc(N)nc3n(C3CCCC3)c2=O)cn1`, the concentration for half-maximal inhibition (IC50) on PIK3CA (human) worked out at 2 nM; in test [1] it was 9.57 nM.

Consider `CNc1nc(C)c2cc(-c3ccc(OC)nc3)c(=O)n(CCC3CC3)c2n1`, for which the half-maximal inhibitory concentration (IC50) at PIK3CA (human) is 8.9 nM; in test [1], 41.4 nM.

For `CCNc1nc(C)c2cc(-c3cccc(O)c3)c(=O)n(C3CCCC3)c2n1`, the IC50 at PIK3CA (human) was determined as 1.01 nM; in test [1] it was 3.05 nM.

On to `COc1ccc(-c2cc3c(C)nc(N)nc3n(CC3(F)CCOCC3)c2=O)cn1`, for which the results for the IC50 (against PIK3CA (human); in test [1]) were 18 nM and 316 nM, respectively.

In the case of `C=CCn1c(=O)c(-c2ccc(OC)nc2)cc2c(C)nc(NC)nc21`, the results for the IC50 (at PIK3CA (human); in test [1]) were 17 nM and 106 nM, respectively.

As for `COc1ccc(-c2cc3c(C)nc(N)nc3n(C3CCN(C(=O)OC(C)(C)C)C3)c2=O)cn1` (stereo not drawn), the IC50 against PIK3CA (human) was found to be 27 nM; in test [1], 172 nM.

For the compound `COc1ccc(-c2cc3c(C)nc(N)nc3n(C3CN(C(=O)OC(C)(C)C)C3)c2=O)cn1`, the IC50 turned out to be 29 nM against PIK3CA (human) and 318 nM in test [1].

For `Cc1nc(N)nc2c1cc(-c1cnn(C(=O)OC(C)(C)C)c1)c(=O)n2N1CCCC1`, the IC50 was 93 nM against PIK3CA (human) and 5.08 nM in test [1].

With `CCNc1nc(C)c2cc(-c3cnc(OC)c(F)c3)c(=O)n([C@H]3CC[C@H](O)CC3)c2n1`, the IC50 was determined as 0.788 nM against PIK3CA (human) and 5.1 nM in test [1].

On to `Cc1nc(N)nc2c1cc(-c1cnc3[nH]ccc3c1)c(=O)n2[C@@H]1CC[C@@H](O)C1`, for which the IC50 at PIK3CA (human) was found to be 1.2 nM; in test [1], 55.8 nM.

For the compound `CCNc1nc(C)c2cc(-c3cnc4[nH]ccc4c3)c(=O)n(C3CCCC3)c2n1`, the IC50 at PIK3CA (human) came out at 1.77 nM; in test [1] it was 46.1 nM.

Regarding `Cc1nc(N)nc2c1cc(-c1ccc3cc[nH]c3n1)c(=O)n2[C@H]1CC[C@@H](O)CC1`, the half-inhibitory concentration (IC50) against PIK3CA (human) is 1.6 nM; in test [1], 25.4 nM.

Take `Cc1nc(N)nc2c1cc(-c1ccc(N3CCCC3)nc1)c(=O)n2[C@H]1CC[C@H](O)CC1`: the half-maximal inhibitory concentration (IC50) against PIK3CA (human) was 19 nM; in test [1] it was 4.92 nM.

With `CNc1nc(C)c2cc(-c3ccc(OC)nc3)c(=O)n(C3CCC3)c2n1`, the concentration for half-maximal inhibition (IC50) was 6.3 nM against PIK3CA (human) and 58.4 nM in test [1].

As for `Cc1nc(N)nc2c1cc(-c1cnc3[nH]ccc3c1)c(=O)n2[C@H]1CC[C@H](O)CC1`, the half-inhibitory concentration (IC50) at PIK3CA (human) was 1.3 nM; in test [1] it was 31.9 nM.

Regarding `CNc1nc(C)c2cc(/C=C/O)c(=O)n(C3CCCC3)c2n1`, the IC50 against PIK3CA (human) is 42 nM; in test [1] it was 896 nM.

For the compound `CNc1nc(C)c2cc(-c3cncnc3)c(=O)n(C3CCCC3)c2n1`, the IC50 against PIK3CA (human) amounted to 23 nM; in test [1] it was 305 nM.
